In paper PMC7686308, “Overcoming the blood–brain barrier by Annexin A1-binding peptide to target brain tumours” (British Journal of Cancer, 2020):
Peptide text beside a SMILES is read from it.

Key:
[1] = test system: subcutaneous colon tumours; details: mouse, in vivo; cited from earlier work
[2] = Histology of tumours from mice injected with IF7; format: in vivo, mouse; details: histological analysis, data not shown
[3] = test system: N-terminally His-Tagged ANXA1; details: plate binding analysis; cited from earlier work
Text: (§1) We next assessed IF7 binding to recombinant human ANXA1 protein and human MC16 peptide in three ways (Fig. 2a-c). First, we added biotinylated IF7 in solution to plastic wells coated with monomeric MC16 and determined IF7 binding by peroxidase-conjugated streptavidin and a peroxidase colour reaction (Fig. 2a). […] Second, we assessed binding of IF7 and MC16 in solution by fluorescence correlation spectrometry (FCS) ( ...

[4] = test system: ANXA1 with a free N-terminus; details: plate binding analysis; cited from earlier work
Text: as §1

human MC16 peptide = assay: Plate binding assay to human MC16 peptide; details: biotinylated IF7C(RR) 1 μg/mL, MC16 10 nmoles coated, peroxidase-streptavidin
Method: (§2) We next assessed IF7 binding to recombinant human ANXA1 protein and human MC16 peptide in three ways (Fig. 2a-c). First, we added biotinylated IF7 in solution to plastic wells coated with monomeric MC16 and determined IF7 binding by peroxidase-conjugated streptavidin and a peroxidase colour reaction (Fig. 2a). […] Thus, we modelled the ANXA1 dimer using the Zdock module for protein–protein docking.[26] The IF7 docking pose was calculated to be −3.7 kcal/mol (Fig. 2d).
(§3) Fig. 2 Binding of IF7 to the ANXA1 N-terminal domain and full-length ANXA1 protein in vitro. a Plate binding assay of N-terminal biotinylated IF7C(RR) to human MC16 peptide and its mutants. Each synthetic MC16 and its mutant peptide (10 nmoles) was bound to maleimide-activated plastic well through its C-terminal cysteine residue. Biotinylated IF7C(RR) peptide (1 μg/mL) was added to each well and binding of biotinylated peptide was detected by peroxidase-conjugated streptavidin and peroxidase colour reaction. b FCS analysis of IF7 with ANXA1 (left) and with MC16 peptides (right) in solution. […] The proposed model was further validated by dG scoring, which was calculated using MOE software with GBVI/WSA, a program allows us to compare calculated and observed energetics.[59] The IF7 docking pose was calculated to be −3.7 kcal/mol.

[5] = test system: MC16 mutant peptides F7A, K9A and E15A; assay: Plate binding assay to MC16 mutant peptides; design: species or system human; details: biotinylated IF7C(RR) 1 μg/mL, mutant peptide 10 nmoles coated
Method: as §2, §3

mouse MC16 = assay: Plate binding assay to mouse MC16 peptide
Method: as §3
Fig. 3 Targeting of IF7 to the brain tumour vasculature in vivo in the mouse. a Binding of IF7 and control peptides to mouse and human MC16 peptides by plate assay. Biotinylated IF7C(RR) and control C(RR) was assessed for their binding to MC16 in a similar manner as in Fig. 2a. b Targeting of fluorescent-labelled IF7 peptide to the brain tumour vasculature in the mouse. […] Blue fluorescence (left panels) represents nuclear Hoechst 33342 and green fluorescence (right) represents Alexa 488. […]

[6] = test system: ANXA1 exhibiting a free N-terminus; assay: FCS binding to ANXA1 with free N-terminus; design: species or system human; details: IF7C-A546, 37 °C, 1 h, increase in diffusion time
Method: (§4) A mixture of IF7C-A546 with Anxa1 or MC16 (50 μl) was loaded into each well of a 96-well plate and incubated at 37 °C for 1 h. FCS was performed with the MF20 analytical system (Olympus) using a 543 nm He–Ne laser for illumination. Each sample was measured five times with a data acquisition time of 10 sec per measurement. IF7C(RR) binding was defined as an increase in translational diffusion time relative to a control.
as §3

monomeric MC16 = assay: FCS binding to monomeric MC16; design: species or system human; details: IF7C-A546, 37 °C, 1 h, diffusion time
Method: as §4, §3

tetrameric MC16 = assay: FCS binding to tetrameric MC16; design: species or system human; details: IF7C-A546, 37 °C, 1 h, diffusion time
[7] = test system: N-terminally His-tagged ANXA1; assay: FCS binding to N-terminally His-tagged ANXA1; design: species or system human; details: IF7C-A546, 37 °C, 1 h, diffusion time
Method: as §4, §3

Q: Which results are given for `CC[C@H](C)[C@H](N)C(=O)N[C@@H](Cc1ccccc1)C(=O)N[C@@H](CC(C)C)C(=O)N[C@@H](CC(C)C)C(=O)N[C@@H](Cc1c[nH]c2ccccc12)C(=O)N[C@@H](CCC(N)=O)C(=O)N[C@@H](CCCNC(=N)N)C(=O)N[C@@H](CS)C(=O)N[C@@H](CCCNC(=N)N)C(=O)N[C@@H](CCCNC(=N)N)C(=O)O` [IF7] (H-IFLLWQRCRR-OH; N-terminus and C-terminus assumed)?
A: fluorescent signals 15 min after i.v. injection [1]: fluorescent signals are seen in vesicles at mostly the basal side of vasculature; fluorescent signals 40 min after i.v. injection [1]: fluorescence is seen in the stroma and in tumour cells; signs of inflammation in tumours [2]: did not reveal signs of inflammation; plate binding to N-terminally His-Tagged ANXA1 [3]: not N-terminally His-Tagged ANXA1; plate binding to ANXA1 with free N-terminus [4]: IF7 bound ANXA1 with a free N-terminus; IF7 binding to MC16 (human MC16 peptide): IF7 bound to WT MC16; IF7 binding to MC16 mutants [5]: binding was significantly reduced; binding to human and mouse MC16 compared (mouse MC16; Fig. 3a, human versus mouse MC16): IF7 bound both human and mouse MC16 peptides equally; binding to mouse MC16 (mouse MC16; biotinylated IF7C(RR), in a similar manner as in Fig. 2a): IF7 binding to N-terminal domain of mouse MC16 was confirmed; binding in solution to untagged ANXA1 [6]: IF7 bound to ANXA1 exhibiting a free N-terminus; binding in solution to MC16 monomer (monomeric MC16): the diffusion time of IF7 with MC16 monomer did not increase; binding in solution to tetrameric MC16 (tetrameric MC16): IF7 bound to tetrameric rather than monomeric MC16; binding in solution to N-terminally His-tagged ANXA1 [7]: not to N-terminally His-tagged ANXA1
